Laboratory results from ChEMBL document CHEMBL1201862, “PubChem BioAssay data set” (2004).
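Compound exposure: 48 hours, 5 concentrations, 96-well plates. GI50 marks 50% less growth.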 Calls of active or inactive are those of the source. No stated cut-off is given here; in the data, active = GI50 up to about 1.1 µM and inactive = higher.

What was measured:
Experiment in all cases: NCI-60 cell line screen, 48 h
A498 = system: A498
M14 = system: M14
EKVX = system: EKVX
COLO 205 = system: COLO 205
SF-539 = system: SF-539
HCT-116 = system: HCT-116
SK-OV-3 = system: SK-OV-3
UACC-62 = system: UACC-62
CCRF-CEM = system: CCRF-CEM
HT-29 = system: HT-29
OVCAR-5 = system: OVCAR-5
SNB-19 = system: SNB-19
MCF7 = system: MCF7
CAKI-1 = system: CAKI-1
OVCAR-8 = system: OVCAR-8
SK-MEL-2 = system: SK-MEL-2
MOLT-4 = system: MOLT-4
OVCAR-4 = system: OVCAR-4
HCC 2998 = system: HCC 2998

Compound	GI50 (A498)	GI50 (M14)	GI50 (EKVX)	GI50 (COLO 205)	GI50 (SF-539)	GI50 (HCT-116)	GI50 (SK-OV-3)	GI50 (UACC-62)	GI50 (CCRF-CEM)	GI50 (HT-29)	GI50 (OVCAR-5)	GI50 (SNB-19)	GI50 (MCF7)	GI50 (CAKI-1)	GI50 (OVCAR-8)	GI50 (SK-MEL-2)	GI50 (MOLT-4)	GI50 (OVCAR-4)	GI50 (HCC 2998)
O=c1oc2ccccc2n1CCCn1c(=O)oc2ccccc21	> 100 µM (inactive)	> 100 µM (inactive)	> 100 µM (inactive)	> 100 µM (inactive)	> 100 µM (inactive)	> 100 µM (inactive)	> 100 µM (inactive)	> 100 µM (inactive)	> 100 µM (inactive)	> 100 µM (inactive)	> 100 µM (inactive)	> 100 µM (inactive)	> 100 µM (inactive)	> 100 µM (inactive)	> 100 µM (inactive)	> 100 µM (inactive)	> 100 µM (inactive)	–	–
CC(=O)C1=C(O)C2C3c4c[nH]c5cccc(c45)CC3C(C)(C)N2C1=O (centres undefined)	20.1 µM (inactive)	> 100 µM (inactive)	20.6 µM (inactive)	> 100 µM (inactive)	15.6 µM (inactive)	–	> 100 µM (inactive)	44.1 µM (inactive)	27.2 µM (inactive)	34.4 µM (inactive)	16.6 µM (inactive)	15.4 µM (inactive)	–	> 100 µM (inactive)	–	13.1 µM (inactive)	15.6 µM (inactive)	> 100 µM (inactive)	23.1 µM (inactive)
CCC(C)(O)c1cn(-c2ccc(S(=O)(=O)O)cc2)nn1 (centres undefined)	> 100 µM (inactive)	> 100 µM (inactive)	> 100 µM (inactive)	> 100 µM (inactive)	> 100 µM (inactive)	> 100 µM (inactive)	> 100 µM (inactive)	> 100 µM (inactive)	> 100 µM (inactive)	> 100 µM (inactive)	> 100 µM (inactive)	> 100 µM (inactive)	–	> 100 µM (inactive)	> 100 µM (inactive)	> 100 µM (inactive)	> 100 µM (inactive)	> 100 µM (inactive)	> 100 µM (inactive)
O=C(/C=C/c1ccccc1)CC(=O)CCC(=O)Nc1ccc(Cl)cc1	> 100 µM (inactive)	28.3 µM (inactive)	> 100 µM (inactive)	> 100 µM (inactive)	> 100 µM (inactive)	37.8 µM (inactive)	> 100 µM (inactive)	2.69 µM (inactive)	> 100 µM (inactive)	88.9 µM (inactive)	> 100 µM (inactive)	> 100 µM (inactive)	–	57.8 µM (inactive)	> 100 µM (inactive)	> 100 µM (inactive)	> 100 µM (inactive)	> 100 µM (inactive)	80.7 µM (inactive)
Cc1ccc2c(c1)c(=O)c1c(NCCN(C)C)ccc3nnn2c31	4.88 µM (inactive)	4.25 µM (inactive)	3.64 µM (inactive)	1.9 µM (inactive)	5.26 µM (inactive)	2.63 µM (inactive)	3.56 µM (inactive)	6.44 µM (inactive)	2.21 µM (inactive)	1.47 µM (inactive)	2.59 µM (inactive)	6.34 µM (inactive)	–	2.02 µM (inactive)	2.98 µM (inactive)	8.04 µM (inactive)	0.605 µM (active)	3.6 µM (inactive)	3.4 µM (inactive)
Cc1cc(NCCCCCCNc2cc(C)nc3cc(N(C)C)ccc23)c2ccc(N(C)C)cc2n1	> 100 µM (inactive)	49.9 µM (inactive)	> 100 µM (inactive)	–	59.6 µM (inactive)	10.7 µM (inactive)	12.3 µM (inactive)	9.2 µM (inactive)	22.3 µM (inactive)	36.1 µM (inactive)	22.4 µM (inactive)	1.67 µM (inactive)	–	55.8 µM (inactive)	31 µM (inactive)	32.2 µM (inactive)	6.9 µM (inactive)	22.6 µM (inactive)	22.4 µM (inactive)
